Results from PubChem BioAssay (NCI).
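Dose response: 5 concentrations. Exposure: 48 h. Format: 96-well plates. Endpoint: linear interpolation; highest concentration if not reached. At the GI50, growth is halved. TGI marks complete inhibition of growth.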

Legend:
Assay in all cases: NCI anticancer screen, dose series, 48 h
[1] = test system: A549 NSCLC
[2] = test system: CAKI-1 renal
[3] = test system: HCT-15 colon
[4] = test system: HOP-92 NSCLC
[5] = test system: KM12 colon
[6] = test system: LOX IMVI melanoma
[7] = test system: SF-295 CNS
[8] = test system: SNB-19 CNS
[9] = test system: UACC-62 melanoma
[10] = test system: SNB-75 CNS

Row | SMILES | TGI [1] | TGI [2] | TGI [3] | TGI [4] | TGI [5] | TGI [6] | TGI [7] | TGI [8] | TGI [9] | GI50 [1] | GI50 [2] | GI50 [3] | GI50 [4] | GI50 [5] | GI50 [6] | GI50 [7] | GI50 [8] | GI50 [10] | TGI [10]
1 | CCOc1cc2c(cc1OC)c[n+](C)c1c3cc(OC)c(OC)cc3ccc21 | > 100 µM | > 100 µM | > 100 µM | > 60.3 µM | > 100 µM | > 81.3 µM | > 100 µM | > 100 µM | > 100 µM |  |  |  |  |  |  |  |  |  | 
2 | COc1ccccc1C1C(C#N)=C(N)SC(N)=C1C#N | > 100 µM | > 100 µM | > 100 µM | > 100 µM | > 100 µM | > 100 µM | > 100 µM | > 100 µM |  | > 100 µM | 7.71 µM | 81.3 µM | 47.1 µM | 37.8 µM | 50.2 µM | 67 µM | > 100 µM | 39.2 µM | > 100 µM
3 | CCOC(=O)c1ccc(N2C(=O)/C(=C/c3ccc(N(CCC#N)CCC#N)cc3)N=C2c2cc([N+](=O)[O-])ccc2Cl)cc1 | > 100 µM | > 100 µM | > 100 µM | > 100 µM | > 100 µM | > 100 µM | > 100 µM | > 100 µM | > 100 µM |  |  |  |  |  |  |  |  |  | 
4 | CC1OC1C(=O)P(=O)(O)O (stereo unspecified) | > 100 µM | > 100 µM | > 100 µM | > 100 µM | > 100 µM | > 100 µM | > 100 µM | > 100 µM | > 100 µM |  |  |  |  |  |  |  |  |  | > 100 µM
5 | OC1CCN2Cc3ccccc3N=C12 (stereo unspecified) | > 100 µM | > 100 µM | > 100 µM | > 100 µM | > 100 µM | > 100 µM | > 100 µM | > 100 µM | > 100 µM |  |  |  |  |  |  |  |  |  | > 100 µM
6 | NCC(=O)N[C@H]1c2ccsc2/C(=N/O)[C@H]1O | > 100 µM | > 100 µM | > 100 µM | > 100 µM |  | > 100 µM | > 100 µM |  | > 100 µM |  |  |  |  |  |  |  |  |  | 
7 | Cc1ccccc1NC(=O)C(=O)C(C1OC(=O)c2ccccc21)[N+](=O)[O-] (stereo unspecified) | > 100 µM | > 100 µM | > 100 µM | > 100 µM | > 100 µM | > 100 µM | > 100 µM | > 100 µM | > 100 µM |  |  |  |  |  |  |  |  |  | > 100 µM
8 | COC1CCC(O)C(CO)O1 (stereo unspecified) | > 100 µM |  | > 100 µM | > 100 µM | > 100 µM | 65.4 µM | > 100 µM |  | > 100 µM |  |  |  |  |  |  |  |  |  | > 100 µM
9 | C[N+](C)(N)Cc1nc(-c2ccc(Cl)cc2)no1 | > 100 µM | > 100 µM | > 100 µM | > 100 µM | > 100 µM | > 100 µM | > 100 µM | > 100 µM | > 100 µM |  |  |  |  |  |  |  |  |  | > 100 µM
10 | O=C(O)CSC1=NCCN1 | > 100 µM | > 100 µM | > 100 µM | > 100 µM | > 100 µM | > 100 µM | > 100 µM | > 100 µM | > 100 µM |  |  |  |  |  |  |  |  |  | > 100 µM
